Source: patent US10167262B2, “Herbicidal substituted 3-arylpyrazoles” (FMC CORPORATION, priority 2014, dated 2019)

What was measured:
Format in all cases: in vivo
[1] = system: chickweed (common chickweed, Stellaria media); assay: Test C postemergence greenhouse test, plant response rating 0-100; details: for Plant response rating, Chickweed: scale 0 to 100
Source text: (§1) At the same time, plants selected from these crop and weed species and also winter barley (Hordeum vulgare), bermudagrass (Cynodon dactylon), downy bromegrass (Bromus tectorum), canarygrass (Phalaris minor), cocklebur (common cocklebur, Xanthium strumarium), woolly cupgrass (Eriochloa villosa), deadnettle (henbit deadnettle, Lamium amplexicaule), green foxtail (Setaria viridis), goosegrass (Eleusine indica), surinam grass (Brachiaria decumbens), windgrass (Apera spica-venti), chickweed (common chickweed, Stellaria media), kochia (Kochia scoparia), and wild oat (Avena fatua), were planted in pots containing Redi-Earth® planting medium (Scotts Company, 14111 Scottslawn Road, Marysville, Ohio 43041) comprising spaghnum peat moss, vermiculite, wetting agent and starter nutrients and treated with postemergence applications of test chemicals formulated in the same manner. Plants ranged in height from 2 to 18 cm (1- to 4-leaf stage) for postemergence treatments. Treated plants and controls were maintained in a greenhouse for 13 to 15 days, after which time all species were compared to controls and visually evaluated. Plant response ratings, summarized in Table C, are based on a scale of 0 to 100 where 0 is no effect and 100 is complete control. A dash (-) response means no test result.

wild oat (Avena fatua) = assay: as above; details: for Plant response rating, Oat, Wild: scale 0 to 100
Source text: as §1

kochia (Kochia scoparia) = assay: as above; details: for Plant response rating, Kochia: scale 0 to 100
Source text: as §1

[2] = system: giant foxtail (Setaria faberii); assay: Test C pre-/postemergence greenhouse test, plant response rating 0-100; details: Postemergence; for Plant response rating, Foxtail, Giant: scale 0 to 100
Method in brief: (§2)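 Greenhouse test. Preemergence: seed in loam:sand, sprayed with formulated chemical (solvent + surfactant). Postemergence: 1–4 leaf plants, 2–18 cm, peat-based potting medium. Hold 13–15 d; score visually, 0 (none) to 100 (complete control); dash = not tested.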

[3] = system: Italian ryegrass (Lolium multiflorum); assay: as above
Method in brief: as §2

[4] = system: pigweed (Amaranthus retroflexus); assay: as above; details: Postemergence; for Plant response rating, Pigweed: scale 0 to 100
Method in brief: as §2

[5] = system: johnsongrass (Sorghum halepense); assay: as above; details: Postemergence; for Plant response rating, Johnsongrass: scale 0 to 100
Method in brief: as §2

[6] = system: lambsquarters (Chenopodium album); assay: as above; details: Postemergence; for Plant response rating, Lambsquarters: scale 0 to 100
Method in brief: as §2

[7] = system: galium (catchweed bedstraw, Galium aparine); assay: as above; details: Postemergence; for Plant response rating, Galium: scale 0 to 100
Method in brief: as §2

corn (Zea mays) = assay: as above; details: Postemergence; for Plant response rating, Corn: scale 0 to 100
Method in brief: as §2

[8] = system: yellow nutsedge (Cyperus esculentus); assay: as above; details: Postemergence; for Plant response rating, Nutsedge, Yellow: scale 0 to 100
Method in brief: as §2

[9] = system: winter wheat (Triticum aestivum); assay: as above
Method in brief: as §2

soybean (Glycine max) = assay: as above
Method in brief: as §2

[10] = Postemergence, 250 g ai/ha, scale 0 to 100
[11] = Postemergence, 500 g ai/ha, scale 0 to 100
[12] = Preemergence, 0 to 100 scale (0 no effect, 100 complete control), rate 500 g ai/ha per head r3, sub-head of this section not shown

O=C(c1ccccc1)c1cn(S(=O)(=O)C(F)(F)F)nc1-c1cc(Cl)cc(Cl)c1 [Compound 2]
Plant response rating (0 to 100), Chickweed ([1]; 62 g ai/ha): 98 | Plant response rating (0 to 100), Chickweed ([1]; 125 g ai/ha): 100 | Plant response rating, Chickweed ([1]; 250 g ai/ha): 100 | Plant response rating, Chickweed ([1]; 500 g ai/ha): 100 | Plant response rating (0 to 100), Oat, Wild (wild oat (Avena fatua); 62 g ai/ha): 0 | Plant response rating (0 to 100), Oat, Wild (wild oat (Avena fatua); 125 g ai/ha): 0 | Plant response rating, Oat, Wild (wild oat (Avena fatua); 250 g ai/ha): 0 | Plant response rating, Oat, Wild (wild oat (Avena fatua); 500 g ai/ha): 0 | Plant response rating (0 to 100), Kochia (kochia (Kochia scoparia); 62 g ai/ha): 80 | Plant response rating (0 to 100), Kochia (kochia (Kochia scoparia); 125 g ai/ha): 85 | Plant response rating, Kochia (kochia (Kochia scoparia); 250 g ai/ha): 90 | Plant response rating, Kochia (kochia (Kochia scoparia); 500 g ai/ha): 95 | Plant response rating (0 to 100), Foxtail, Giant ([2]; 62 g ai/ha): 0 | Plant response rating (0 to 100), Foxtail, Giant ([2]; 125 g ai/ha): 0 | Plant response rating, Foxtail, Giant ([2]; 250 g ai/ha): 0 | Plant response rating, Foxtail, Giant ([2]; 500 g ai/ha): 0 | Plant response rating (0 to 100), Ryegrass, Italian ([3]; Postemergence, 62 g ai/ha): 0 | Plant response rating (0 to 100), Ryegrass, Italian ([3]; Postemergence, 125 g ai/ha): 0 | Plant response rating, Ryegrass, Italian [3, 10]: 0 | Plant response rating, Ryegrass, Italian [3, 11]: 0 | Plant response rating, Ryegrass, Italian [3, 12]: 0 | Plant response rating (0 to 100), Pigweed ([4]; 62 g ai/ha): 90 | Plant response rating (0 to 100), Pigweed ([4]; 125 g ai/ha): 90 | Plant response rating, Pigweed ([4]; 250 g ai/ha): 98 | Plant response rating, Pigweed ([4]; 500 g ai/ha): 100 | Plant response rating (0 to 100), Johnsongrass ([5]; 62 g ai/ha): 0 | Plant response rating (0 to 100), Johnsongrass ([5]; 125 g ai/ha): 0 | Plant response rating, Johnsongrass ([5]; 250 g ai/ha): 0 | Plant response rating, Johnsongrass ([5]; 500 g ai/ha): 0 | Plant response rating (0 to 100), Lambsquarters ([6]; 62 g ai/ha): 85 | Plant response rating (0 to 100), Lambsquarters ([6]; 125 g ai/ha): 85 | Plant response rating, Lambsquarters ([6]; 250 g ai/ha): 85 | Plant response rating, Lambsquarters ([6]; 500 g ai/ha): 90 | Plant response rating (0 to 100), Galium ([7]; 62 g ai/ha): 0 | Plant response rating (0 to 100), Galium ([7]; 125 g ai/ha): 0 | Plant response rating, Galium ([7]; 250 g ai/ha): 50 | Plant response rating, Galium ([7]; 500 g ai/ha): 50 | Plant response rating (0 to 100), Corn (corn (Zea mays); 62 g ai/ha): 0 | Plant response rating (0 to 100), Corn (corn (Zea mays); 125 g ai/ha): 0 | Plant response rating, Corn (corn (Zea mays); 250 g ai/ha): 0 | Plant response rating, Corn (corn (Zea mays); 500 g ai/ha): 0 | Plant response rating (0 to 100), Nutsedge, Yellow ([8]; 62 g ai/ha): 0 | Plant response rating (0 to 100), Nutsedge, Yellow ([8]; 125 g ai/ha): 0 | Plant response rating, Nutsedge, Yellow ([8]; 250 g ai/ha): 0 | Plant response rating, Nutsedge, Yellow ([8]; 500 g ai/ha): 0 | Plant response rating (0 to 100), Wheat ([9]; Postemergence, 62 g ai/ha): 0 | Plant response rating (0 to 100), Wheat ([9]; Postemergence, 125 g ai/ha): 0 | Plant response rating, Wheat [9, 10]: 0 | Plant response rating, Wheat [9, 11]: 0 | Plant response rating, Wheat ([9]; Preemergence, 0 to 100 scale (0 no effect, 100 complete control), rate 500 g ai/ha): 0 | Plant response rating (0 to 100), Soybean (soybean (Glycine max); Postemergence, 62 g ai/ha): 0 | Plant response rating (0 to 100), Soybean (soybean (Glycine max); Postemergence, 125 g ai/ha): 0 | Plant response rating, Soybean (soybean (Glycine max); [10]): 0 | Plant response rating, Soybean (soybean (Glycine max); [11]): 5 | Plant response rating, Soybean (soybean (Glycine max); [12]): 0

CCn1cc(C(=O)c2ccccc2)c(-c2cc(Br)cc(Br)c2)n1 [Compound 38]
Plant response rating (0 to 100), Chickweed ([1]; 31 g ai/ha): 20 | Plant response rating (0 to 100), Chickweed ([1]; 62 g ai/ha): 50 | Plant response rating (0 to 100), Chickweed ([1]; 125 g ai/ha): 60 | Plant response rating, Chickweed ([1]; 250 g ai/ha): 100 | Plant response rating (0 to 100), Oat, Wild (wild oat (Avena fatua); 62 g ai/ha): 0 | Plant response rating (0 to 100), Oat, Wild (wild oat (Avena fatua); 125 g ai/ha): 0 | Plant response rating, Oat, Wild (wild oat (Avena fatua); 250 g ai/ha): 0 | Plant response rating (0 to 100), Kochia (kochia (Kochia scoparia); 62 g ai/ha): 35 | Plant response rating, Kochia (kochia (Kochia scoparia); 250 g ai/ha): 50 | Plant response rating (0 to 100), Foxtail, Giant ([2]; 31 g ai/ha): 0 | Plant response rating (0 to 100), Foxtail, Giant ([2]; 62 g ai/ha): 0 | Plant response rating (0 to 100), Foxtail, Giant ([2]; 125 g ai/ha): 0 | Plant response rating, Foxtail, Giant ([2]; 250 g ai/ha): 0 | Plant response rating (0 to 100), Ryegrass, Italian ([3]; Postemergence, 62 g ai/ha): 0 | Plant response rating (0 to 100), Ryegrass, Italian ([3]; Postemergence, 125 g ai/ha): 0 | Plant response rating, Ryegrass, Italian [3, 10]: 0 | Plant response rating (0 to 100), Pigweed ([4]; 62 g ai/ha): 85 | Plant response rating, Pigweed ([4]; 250 g ai/ha): 100 | Plant response rating (0 to 100), Johnsongrass ([5]; 62 g ai/ha): 0 | Plant response rating (0 to 100), Johnsongrass ([5]; 125 g ai/ha): 0 | Plant response rating, Johnsongrass ([5]; 250 g ai/ha): 0 | Plant response rating (0 to 100), Lambsquarters ([6]; 62 g ai/ha): 75 | Plant response rating (0 to 100), Lambsquarters ([6]; 125 g ai/ha): 75 | Plant response rating, Lambsquarters ([6]; 250 g ai/ha): 100 | Plant response rating (0 to 100), Galium ([7]; 31 g ai/ha): 0 | Plant response rating (0 to 100), Galium ([7]; 62 g ai/ha): 0 | Plant response rating (0 to 100), Galium ([7]; 125 g ai/ha): 0 | Plant response rating, Galium ([7]; 250 g ai/ha): 5 | Plant response rating (0 to 100), Nutsedge, Yellow ([8]; 62 g ai/ha): 0 | Plant response rating (0 to 100), Nutsedge, Yellow ([8]; 125 g ai/ha): 0 | Plant response rating, Nutsedge, Yellow ([8]; 250 g ai/ha): 0 | Plant response rating (0 to 100), Wheat ([9]; Postemergence, 62 g ai/ha): 0 | Plant response rating (0 to 100), Wheat ([9]; Postemergence, 125 g ai/ha): 0 | Plant response rating, Wheat [9, 10]: 5 | Plant response rating (0 to 100), Soybean (soybean (Glycine max); Postemergence, 62 g ai/ha): 0 | Plant response rating (0 to 100), Soybean (soybean (Glycine max); Postemergence, 125 g ai/ha): 0 | Plant response rating, Soybean (soybean (Glycine max); [10]): 0
